{"source": "patent US20240109972A1", "about": "“ANTIBODY AND TAXANE COMBINATION THERAPY” (Genmab A/S, priority 2020, published 2024)", "system": "solid malignant tumors", "test": "GEN1046 Phase I dose escalation (NCT03917381), response by RECIST v1.1", "assay_type": "in vivo, human", "settings": "for BOR Stable Disease, (percent) / BOR Stable Disease, patients / BOR Complete Response, (percent) / BOR Complete Response, patients / BOR Progressive Disease, (percent) / BOR Progressive Disease, patients / BOR Partial Response, (percent) / BOR Partial Response, patients: 3 Feb. 2020", "from_the_text": "The resistance to, failure to respond to and/or relapse from treatment with a binding agent of the invention and/or other therapeutic agent(s) may be determined according to the Response Evaluation Criteria In Solid Tumors; version 1.1 (RECIST Criteria v1.1).\nThe “best overall response” is the best response recorded from the start of the treatment until disease progression/recurrence (the smallest measurements recorded since the treatment started will be used as the reference for PD). Subjects with CR or PR are considered to be objective response. Subjects with CR, PR or SD are considered to be in disease control. Subjects with NE are counted as non-responders. […]\nClinical trial on GCT1046-01 (ClinicalTrials.gov Identifier: NCT03917381) was designed as a two-part trial, including an ongoing dose escalation part and a planned expansion part.\nThe trial consists of 2 parts; a First-in-Human (FIH) dose escalation (Phase I) and an expansion (Phase 11a).\nFor dose escalation, subject was required to be a man or […] and was required to have measurable disease according to RECIST 1.1."}
{"substance": "GEN1046: PD-L1×4-1BB bispecific antibody: PD-L1-547-FEAL combined with CD137-009-HC7LC2-FEAR (SEQ ID NOs: 1, 5, 21, 19; 8, 12, 22, 20)", "values": [{"measurement": "BOR Stable Disease, (percent)", "setting": "140 mg (n = 1)", "result": "(0)"}, {"measurement": "BOR Stable Disease, patients", "setting": "140 mg (n = 1)", "result": 0}, {"measurement": "CR (Complete Response), patients", "setting": "200 mg (N 9), Oct. 12, 2020", "result": 0}, {"measurement": "Confirmed CR (Complete Response), patients", "setting": "200 mg (N 9), Oct. 12, 2020", "result": 0}, {"measurement": "Confirmed Disease Control (PR + PR + SD) Rate, %", "setting": "200 mg (N 9), Oct. 12, 2020", "result": 66.7, "unit": "%"}, {"measurement": "Confirmed Disease Control (PR + PR + SD) Rate, patients", "setting": "200 mg (N 9), Oct. 12, 2020", "result": 6}, {"measurement": "Confirmed NE (Not Evaluable), % of patients", "setting": "200 mg (N 9), Oct. 12, 2020", "result": 11.1, "unit": "%"}, {"measurement": "Confirmed NE (Not Evaluable), patients", "setting": "200 mg (N 9), Oct. 12, 2020", "result": 1}, {"measurement": "Confirmed Objective Response (CR + PR) Rate, patients", "setting": "200 mg (N 9), Oct. 12, 2020", "result": 0}, {"measurement": "Confirmed PD (Progressive Disease), % of patients", "setting": "200 mg (N 9), Oct. 12, 2020", "result": 22.2, "unit": "%"}, {"measurement": "Confirmed PD (Progressive Disease), patients", "setting": "200 mg (N 9), Oct. 12, 2020", "result": 2}, {"measurement": "Confirmed PR (Partial Response), patients", "setting": "200 mg (N 9), Oct. 12, 2020", "result": 0}, {"measurement": "Confirmed SD (Stable Disease), % of patients", "setting": "200 mg (N 9), Oct. 12, 2020", "result": 66.7, "unit": "%"}, {"measurement": "Confirmed SD (Stable Disease), patients", "setting": "200 mg (N 9), Oct. 12, 2020", "result": 6}, {"measurement": "Disease Control (PR + PR + SD) Rate, %", "setting": "200 mg (N 9), Oct. 12, 2020", "result": 66.7, "unit": "%"}, {"measurement": "Disease Control (PR + PR + SD) Rate, patients", "setting": "200 mg (N 9), Oct. 12, 2020", "result": 6}, {"measurement": "NE (Not Evaluable), % of patients", "setting": "200 mg (N 9), Oct. 12, 2020", "result": 11.1, "unit": "%"}, {"measurement": "NE (Not Evaluable), patients", "setting": "200 mg (N 9), Oct. 12, 2020", "result": 1}, {"measurement": "Objective Response (CR + PR) Rate, %", "setting": "200 mg (N 9), Oct. 12, 2020", "result": 11.1, "unit": "%"}, {"measurement": "Objective Response (CR + PR) Rate, patients", "setting": "200 mg (N 9), Oct. 12, 2020", "result": 1}, {"measurement": "PD (Progressive Disease), % of patients", "setting": "200 mg (N 9), Oct. 12, 2020", "result": 22.2, "unit": "%"}, {"measurement": "PD (Progressive Disease), patients", "setting": "200 mg (N 9), Oct. 12, 2020", "result": 2}, {"measurement": "PR (Partial Response), % of patients", "setting": "200 mg (N 9), Oct. 12, 2020", "result": 11.1, "unit": "%"}, {"measurement": "PR (Partial Response), patients", "setting": "200 mg (N 9), Oct. 12, 2020", "result": 1}, {"measurement": "BOR Complete Response, (percent)", "setting": "200 mg (n = 8)", "result": "(0)"}, {"measurement": "BOR Complete Response, patients", "setting": "200 mg (n = 8)", "result": 0}, {"measurement": "BOR Progressive Disease, (percent)", "setting": "200 mg (n = 8)", "result": "(25)"}, {"measurement": "BOR Progressive Disease, patients", "setting": "200 mg (n = 8)", "result": 2}, {"measurement": "BOR Stable Disease, (percent)", "setting": "200 mg (n = 8)", "result": "(62.5)"}, {"measurement": "BOR Stable Disease, patients", "setting": "200 mg (n = 8)", "result": 5}, {"measurement": "BOR Partial Response, (percent)", "setting": "200 mg (n = 8), uPR", "result": "(12.5)"}, {"measurement": "BOR Partial Response, patients", "setting": "200 mg (n = 8), uPR", "result": "1^1"}, {"measurement": "CR (Complete Response), patients", "setting": "400 mg (N 9), Oct. 12, 2020", "result": 0}, {"measurement": "Confirmed CR (Complete Response), patients", "setting": "400 mg (N 9), Oct. 12, 2020", "result": 0}, {"measurement": "Confirmed Disease Control (PR + PR + SD) Rate, %", "setting": "400 mg (N 9), Oct. 12, 2020", "result": 77.8, "unit": "%"}, {"measurement": "Confirmed Disease Control (PR + PR + SD) Rate, patients", "setting": "400 mg (N 9), Oct. 12, 2020", "result": 7}, {"measurement": "Confirmed NE (Not Evaluable), patients", "setting": "400 mg (N 9), Oct. 12, 2020", "result": 0}, {"measurement": "Confirmed Objective Response (CR + PR) Rate, patients", "setting": "400 mg (N 9), Oct. 12, 2020", "result": 0}, {"measurement": "Confirmed PD (Progressive Disease), % of patients", "setting": "400 mg (N 9), Oct. 12, 2020", "result": 22.2, "unit": "%"}, {"measurement": "Confirmed PD (Progressive Disease), patients", "setting": "400 mg (N 9), Oct. 12, 2020", "result": 2}, {"measurement": "Confirmed PR (Partial Response), patients", "setting": "400 mg (N 9), Oct. 12, 2020", "result": 0}, {"measurement": "Confirmed SD (Stable Disease), % of patients", "setting": "400 mg (N 9), Oct. 12, 2020", "result": 77.8, "unit": "%"}, {"measurement": "Confirmed SD (Stable Disease), patients", "setting": "400 mg (N 9), Oct. 12, 2020", "result": 7}, {"measurement": "Disease Control (PR + PR + SD) Rate, %", "setting": "400 mg (N 9), Oct. 12, 2020", "result": 77.8, "unit": "%"}, {"measurement": "Disease Control (PR + PR + SD) Rate, patients", "setting": "400 mg (N 9), Oct. 12, 2020", "result": 7}, {"measurement": "NE (Not Evaluable), patients", "setting": "400 mg (N 9), Oct. 12, 2020", "result": 0}, {"measurement": "Objective Response (CR + PR) Rate, patients", "setting": "400 mg (N 9), Oct. 12, 2020", "result": 0}, {"measurement": "PD (Progressive Disease), % of patients", "setting": "400 mg (N 9), Oct. 12, 2020", "result": 22.2, "unit": "%"}, {"measurement": "PD (Progressive Disease), patients", "setting": "400 mg (N 9), Oct. 12, 2020", "result": 2}, {"measurement": "PR (Partial Response), patients", "setting": "400 mg (N 9), Oct. 12, 2020", "result": 0}, {"measurement": "BOR Complete Response, (percent)", "setting": "400 mg (n = 6)", "result": "(0)"}, {"measurement": "BOR Complete Response, patients", "setting": "400 mg (n = 6)", "result": 0}, {"measurement": "BOR Partial Response, (percent)", "setting": "400 mg (n = 6)", "result": "(0)"}, {"measurement": "BOR Partial Response, patients", "setting": "400 mg (n = 6)", "result": 0}, {"measurement": "BOR Progressive Disease, (percent)", "setting": "400 mg (n = 6)", "result": "(0)"}, {"measurement": "BOR Progressive Disease, patients", "setting": "400 mg (n = 6)", "result": 0}, {"measurement": "BOR Stable Disease, (percent)", "setting": "400 mg (n = 6)", "result": "(100)"}, {"measurement": "BOR Stable Disease, patients", "setting": "400 mg (n = 6)", "result": 6}, {"measurement": "CR (Complete Response), patients", "setting": "800 mg (N 9), Oct. 12, 2020", "result": 0}, {"measurement": "Confirmed CR (Complete Response), patients", "setting": "800 mg (N 9), Oct. 12, 2020", "result": 0}, {"measurement": "Confirmed Disease Control (PR + PR + SD) Rate, %", "setting": "800 mg (N 9), Oct. 12, 2020", "result": 55.6, "unit": "%"}, {"measurement": "Confirmed Disease Control (PR + PR + SD) Rate, patients", "setting": "800 mg (N 9), Oct. 12, 2020", "result": 5}, {"measurement": "Confirmed NE (Not Evaluable), % of patients", "setting": "800 mg (N 9), Oct. 12, 2020", "result": 22.2, "unit": "%"}, {"measurement": "Confirmed NE (Not Evaluable), patients", "setting": "800 mg (N 9), Oct. 12, 2020", "result": 2}, {"measurement": "Confirmed Objective Response (CR + PR) Rate, patients", "setting": "800 mg (N 9), Oct. 12, 2020", "result": 0}, {"measurement": "Confirmed PD (Progressive Disease), % of patients", "setting": "800 mg (N 9), Oct. 12, 2020", "result": 22.2, "unit": "%"}]}
